# Read-outs that look alike come from different tables or passages of the source.
# Assays:
# Assay in all cases: biochemical
# [1] = target: T1, panel of 374 wild-type kinases (Homo sapiens, UniProt Q14289); conditions: read-out: % Enzyme Activity (relative to DMSO controls), kinase PYK2
# T1 construct: purchased Reaction Biology Corporation
# [2] = target: T2, panel of 374 wild-type kinases (Homo sapiens, UniProt P54756); conditions: read-out: % Enzyme Activity (relative to DMSO controls), EPHA5
# T2 construct: purchased Reaction Biology Corporation
# T2 sequence (P54756 25-1037): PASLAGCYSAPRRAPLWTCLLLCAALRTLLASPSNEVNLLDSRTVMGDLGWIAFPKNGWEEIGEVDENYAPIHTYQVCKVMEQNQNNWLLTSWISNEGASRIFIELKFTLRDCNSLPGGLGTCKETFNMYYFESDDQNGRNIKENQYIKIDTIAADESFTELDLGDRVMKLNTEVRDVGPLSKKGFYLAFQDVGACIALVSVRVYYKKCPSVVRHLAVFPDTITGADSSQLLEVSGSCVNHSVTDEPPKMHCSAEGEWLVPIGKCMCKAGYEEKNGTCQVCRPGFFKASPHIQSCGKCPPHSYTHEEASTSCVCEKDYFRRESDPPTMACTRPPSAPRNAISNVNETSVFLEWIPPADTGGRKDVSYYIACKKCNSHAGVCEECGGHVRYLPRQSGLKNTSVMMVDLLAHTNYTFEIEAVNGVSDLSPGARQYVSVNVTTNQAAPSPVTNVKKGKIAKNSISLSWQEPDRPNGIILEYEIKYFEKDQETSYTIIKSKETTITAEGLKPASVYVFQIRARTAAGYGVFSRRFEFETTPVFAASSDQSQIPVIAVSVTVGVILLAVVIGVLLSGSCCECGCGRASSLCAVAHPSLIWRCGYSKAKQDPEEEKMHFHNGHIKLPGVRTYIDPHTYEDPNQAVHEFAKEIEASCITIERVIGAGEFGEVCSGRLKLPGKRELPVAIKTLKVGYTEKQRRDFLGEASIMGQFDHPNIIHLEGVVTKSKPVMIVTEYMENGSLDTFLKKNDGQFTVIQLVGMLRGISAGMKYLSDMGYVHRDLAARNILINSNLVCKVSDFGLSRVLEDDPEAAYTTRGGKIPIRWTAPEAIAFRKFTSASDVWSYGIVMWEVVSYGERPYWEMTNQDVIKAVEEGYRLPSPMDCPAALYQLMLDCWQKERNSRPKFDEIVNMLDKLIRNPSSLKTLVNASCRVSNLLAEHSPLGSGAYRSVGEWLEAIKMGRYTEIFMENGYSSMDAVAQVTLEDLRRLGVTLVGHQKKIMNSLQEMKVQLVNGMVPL
# [3] = target: T3, panel of 374 wild-type kinases (Homo sapiens, UniProt Q9H2K8); conditions: read-out: % Enzyme Activity (relative to DMSO controls), kinase TAOK3/JIK
# T3 construct: purchased Reaction Biology Corporation
# T3 sequence (Q9H2K8 1-898): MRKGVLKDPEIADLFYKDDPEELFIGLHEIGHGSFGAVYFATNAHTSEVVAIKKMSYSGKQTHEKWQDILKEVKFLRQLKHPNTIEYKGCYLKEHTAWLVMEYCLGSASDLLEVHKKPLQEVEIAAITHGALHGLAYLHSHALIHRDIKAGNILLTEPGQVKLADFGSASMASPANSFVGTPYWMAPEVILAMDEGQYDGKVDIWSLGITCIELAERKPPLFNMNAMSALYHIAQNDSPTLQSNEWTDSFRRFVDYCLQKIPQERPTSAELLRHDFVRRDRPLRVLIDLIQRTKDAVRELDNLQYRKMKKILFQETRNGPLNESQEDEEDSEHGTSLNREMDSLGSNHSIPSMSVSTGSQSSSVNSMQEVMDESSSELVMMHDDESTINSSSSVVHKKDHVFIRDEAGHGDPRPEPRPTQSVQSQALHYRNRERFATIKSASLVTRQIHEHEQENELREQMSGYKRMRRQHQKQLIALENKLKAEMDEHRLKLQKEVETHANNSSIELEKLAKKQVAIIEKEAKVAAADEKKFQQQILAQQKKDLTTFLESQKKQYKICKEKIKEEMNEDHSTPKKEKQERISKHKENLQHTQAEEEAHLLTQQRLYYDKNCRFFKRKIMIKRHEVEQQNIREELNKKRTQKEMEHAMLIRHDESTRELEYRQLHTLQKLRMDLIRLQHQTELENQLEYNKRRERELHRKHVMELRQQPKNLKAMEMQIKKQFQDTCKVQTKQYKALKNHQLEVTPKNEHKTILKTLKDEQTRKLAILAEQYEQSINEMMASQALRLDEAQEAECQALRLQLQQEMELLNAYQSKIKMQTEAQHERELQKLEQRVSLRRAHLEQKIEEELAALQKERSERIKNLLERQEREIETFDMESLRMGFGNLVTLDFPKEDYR
# [4] = target: T4, panel of 374 wild-type kinases (Homo sapiens, UniProt O96017); conditions: read-out: % Enzyme Activity (relative to DMSO controls), CHK2
# T4 construct: purchased Reaction Biology Corporation
# T4 sequence (O96017 whole entry): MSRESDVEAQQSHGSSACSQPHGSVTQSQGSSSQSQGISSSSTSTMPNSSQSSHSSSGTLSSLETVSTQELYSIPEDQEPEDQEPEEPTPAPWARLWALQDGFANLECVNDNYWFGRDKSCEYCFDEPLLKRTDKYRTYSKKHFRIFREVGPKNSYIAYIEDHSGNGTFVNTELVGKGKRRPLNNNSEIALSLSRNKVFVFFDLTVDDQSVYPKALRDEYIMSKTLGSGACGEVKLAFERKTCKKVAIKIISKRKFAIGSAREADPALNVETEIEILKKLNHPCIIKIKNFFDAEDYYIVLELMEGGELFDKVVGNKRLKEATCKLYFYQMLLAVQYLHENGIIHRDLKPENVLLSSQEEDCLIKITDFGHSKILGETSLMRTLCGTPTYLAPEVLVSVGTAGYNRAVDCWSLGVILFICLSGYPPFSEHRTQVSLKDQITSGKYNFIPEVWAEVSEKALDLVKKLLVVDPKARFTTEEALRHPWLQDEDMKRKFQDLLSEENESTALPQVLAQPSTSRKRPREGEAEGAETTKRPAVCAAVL
# [5] = target: T5, panel of 374 wild-type kinases (Homo sapiens, UniProt Q9H3Y6); conditions: read-out: % Enzyme Activity (relative to DMSO controls), kinase SRMS
# T5 construct: purchased Reaction Biology Corporation
# T5 sequence (Q9H3Y6 whole entry): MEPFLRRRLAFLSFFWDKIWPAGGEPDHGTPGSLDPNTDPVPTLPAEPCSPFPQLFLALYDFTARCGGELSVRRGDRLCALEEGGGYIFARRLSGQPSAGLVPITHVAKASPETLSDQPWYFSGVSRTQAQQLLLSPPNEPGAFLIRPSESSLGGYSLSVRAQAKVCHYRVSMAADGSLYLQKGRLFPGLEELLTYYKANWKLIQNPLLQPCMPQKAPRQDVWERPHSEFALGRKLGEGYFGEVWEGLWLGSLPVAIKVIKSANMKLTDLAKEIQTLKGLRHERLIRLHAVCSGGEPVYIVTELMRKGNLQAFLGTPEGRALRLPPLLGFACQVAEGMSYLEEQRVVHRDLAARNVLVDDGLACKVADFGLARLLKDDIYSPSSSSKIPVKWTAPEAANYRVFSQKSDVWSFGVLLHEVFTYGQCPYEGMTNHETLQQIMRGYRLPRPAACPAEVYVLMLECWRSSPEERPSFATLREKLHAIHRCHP
# [6] = target: T6, panel of 374 wild-type kinases (Homo sapiens, UniProt Q00535)
# T6 construct: purchased Reaction Biology Corporation
# T6 sequence (Q00535 whole entry): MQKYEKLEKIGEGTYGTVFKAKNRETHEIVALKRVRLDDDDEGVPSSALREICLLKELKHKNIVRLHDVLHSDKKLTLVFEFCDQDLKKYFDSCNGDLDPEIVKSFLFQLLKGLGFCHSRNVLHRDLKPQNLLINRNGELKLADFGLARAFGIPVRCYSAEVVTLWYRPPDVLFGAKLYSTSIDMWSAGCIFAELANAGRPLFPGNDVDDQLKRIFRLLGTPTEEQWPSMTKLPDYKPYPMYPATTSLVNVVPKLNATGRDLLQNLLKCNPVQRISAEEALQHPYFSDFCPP
# [7] = target: T7, panel of 374 wild-type kinases (Homo sapiens, UniProt Q04912); conditions: read-out: % Enzyme Activity (relative to DMSO controls), kinase RON/MST1R
# T7 construct: purchased Reaction Biology Corporation
# T7 sequence (Q04912 25-1400): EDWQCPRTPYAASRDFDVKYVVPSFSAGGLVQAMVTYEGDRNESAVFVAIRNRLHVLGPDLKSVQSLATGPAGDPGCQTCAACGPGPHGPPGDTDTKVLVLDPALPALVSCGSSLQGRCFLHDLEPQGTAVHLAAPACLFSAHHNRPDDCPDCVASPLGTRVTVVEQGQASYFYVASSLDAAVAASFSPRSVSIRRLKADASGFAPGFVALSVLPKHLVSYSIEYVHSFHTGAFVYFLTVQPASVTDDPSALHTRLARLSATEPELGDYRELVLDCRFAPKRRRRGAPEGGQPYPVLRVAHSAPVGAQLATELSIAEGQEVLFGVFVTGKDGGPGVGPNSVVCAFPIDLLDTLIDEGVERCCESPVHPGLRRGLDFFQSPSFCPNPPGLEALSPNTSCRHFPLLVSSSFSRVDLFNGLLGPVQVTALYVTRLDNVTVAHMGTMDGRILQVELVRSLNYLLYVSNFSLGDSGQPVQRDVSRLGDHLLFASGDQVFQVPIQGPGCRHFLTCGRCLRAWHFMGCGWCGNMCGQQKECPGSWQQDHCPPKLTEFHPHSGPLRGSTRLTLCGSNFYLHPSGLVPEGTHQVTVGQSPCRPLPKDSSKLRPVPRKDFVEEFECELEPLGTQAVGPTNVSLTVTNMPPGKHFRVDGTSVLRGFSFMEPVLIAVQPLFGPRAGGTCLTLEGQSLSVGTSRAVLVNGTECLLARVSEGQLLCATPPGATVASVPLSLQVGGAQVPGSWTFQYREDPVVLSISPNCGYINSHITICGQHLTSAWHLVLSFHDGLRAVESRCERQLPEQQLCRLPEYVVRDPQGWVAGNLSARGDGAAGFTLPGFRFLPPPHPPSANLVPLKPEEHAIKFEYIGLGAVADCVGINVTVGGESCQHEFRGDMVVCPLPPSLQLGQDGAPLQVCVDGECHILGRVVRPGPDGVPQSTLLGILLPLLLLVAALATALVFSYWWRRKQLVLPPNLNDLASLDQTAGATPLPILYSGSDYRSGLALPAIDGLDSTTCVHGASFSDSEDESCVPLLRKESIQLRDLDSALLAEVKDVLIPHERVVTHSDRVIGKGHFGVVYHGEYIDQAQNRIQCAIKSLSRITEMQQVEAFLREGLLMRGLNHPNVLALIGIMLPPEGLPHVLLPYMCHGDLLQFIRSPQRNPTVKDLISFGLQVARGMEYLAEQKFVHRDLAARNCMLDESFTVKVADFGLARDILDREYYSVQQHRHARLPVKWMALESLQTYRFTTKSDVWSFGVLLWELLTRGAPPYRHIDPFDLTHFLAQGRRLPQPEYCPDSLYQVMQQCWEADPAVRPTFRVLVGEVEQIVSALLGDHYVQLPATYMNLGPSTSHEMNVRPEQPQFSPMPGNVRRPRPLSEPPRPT
# [8] = target: T8, panel of 374 wild-type kinases (Homo sapiens, UniProt P43403); conditions: read-out: % Enzyme Activity (relative to DMSO controls), kinase ZAP70
# T8 construct: purchased Reaction Biology Corporation
# T8 sequence (P43403 1-619): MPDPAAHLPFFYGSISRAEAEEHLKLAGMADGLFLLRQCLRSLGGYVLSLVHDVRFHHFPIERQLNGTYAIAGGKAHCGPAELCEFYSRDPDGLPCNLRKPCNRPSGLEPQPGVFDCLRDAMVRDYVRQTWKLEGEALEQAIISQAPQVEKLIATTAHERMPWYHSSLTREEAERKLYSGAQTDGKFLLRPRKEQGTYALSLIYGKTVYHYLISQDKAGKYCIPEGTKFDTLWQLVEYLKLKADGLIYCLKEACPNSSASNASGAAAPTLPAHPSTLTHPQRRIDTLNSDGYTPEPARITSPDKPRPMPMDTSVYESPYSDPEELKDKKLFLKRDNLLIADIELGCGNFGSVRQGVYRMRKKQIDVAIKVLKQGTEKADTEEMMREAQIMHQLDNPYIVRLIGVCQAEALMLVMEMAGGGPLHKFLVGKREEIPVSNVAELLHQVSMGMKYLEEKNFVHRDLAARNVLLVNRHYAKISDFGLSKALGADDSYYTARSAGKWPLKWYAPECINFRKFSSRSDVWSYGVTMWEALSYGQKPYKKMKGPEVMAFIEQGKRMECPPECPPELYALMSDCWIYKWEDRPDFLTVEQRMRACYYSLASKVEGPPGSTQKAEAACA
# [9] = target: T9, panel of 374 wild-type kinases (Homo sapiens, UniProt P14616); conditions: read-out: % Enzyme Activity (relative to DMSO controls), IRR/INSRR
# T9 construct: purchased Reaction Biology Corporation
# T9 sequence (P14616 27-1297): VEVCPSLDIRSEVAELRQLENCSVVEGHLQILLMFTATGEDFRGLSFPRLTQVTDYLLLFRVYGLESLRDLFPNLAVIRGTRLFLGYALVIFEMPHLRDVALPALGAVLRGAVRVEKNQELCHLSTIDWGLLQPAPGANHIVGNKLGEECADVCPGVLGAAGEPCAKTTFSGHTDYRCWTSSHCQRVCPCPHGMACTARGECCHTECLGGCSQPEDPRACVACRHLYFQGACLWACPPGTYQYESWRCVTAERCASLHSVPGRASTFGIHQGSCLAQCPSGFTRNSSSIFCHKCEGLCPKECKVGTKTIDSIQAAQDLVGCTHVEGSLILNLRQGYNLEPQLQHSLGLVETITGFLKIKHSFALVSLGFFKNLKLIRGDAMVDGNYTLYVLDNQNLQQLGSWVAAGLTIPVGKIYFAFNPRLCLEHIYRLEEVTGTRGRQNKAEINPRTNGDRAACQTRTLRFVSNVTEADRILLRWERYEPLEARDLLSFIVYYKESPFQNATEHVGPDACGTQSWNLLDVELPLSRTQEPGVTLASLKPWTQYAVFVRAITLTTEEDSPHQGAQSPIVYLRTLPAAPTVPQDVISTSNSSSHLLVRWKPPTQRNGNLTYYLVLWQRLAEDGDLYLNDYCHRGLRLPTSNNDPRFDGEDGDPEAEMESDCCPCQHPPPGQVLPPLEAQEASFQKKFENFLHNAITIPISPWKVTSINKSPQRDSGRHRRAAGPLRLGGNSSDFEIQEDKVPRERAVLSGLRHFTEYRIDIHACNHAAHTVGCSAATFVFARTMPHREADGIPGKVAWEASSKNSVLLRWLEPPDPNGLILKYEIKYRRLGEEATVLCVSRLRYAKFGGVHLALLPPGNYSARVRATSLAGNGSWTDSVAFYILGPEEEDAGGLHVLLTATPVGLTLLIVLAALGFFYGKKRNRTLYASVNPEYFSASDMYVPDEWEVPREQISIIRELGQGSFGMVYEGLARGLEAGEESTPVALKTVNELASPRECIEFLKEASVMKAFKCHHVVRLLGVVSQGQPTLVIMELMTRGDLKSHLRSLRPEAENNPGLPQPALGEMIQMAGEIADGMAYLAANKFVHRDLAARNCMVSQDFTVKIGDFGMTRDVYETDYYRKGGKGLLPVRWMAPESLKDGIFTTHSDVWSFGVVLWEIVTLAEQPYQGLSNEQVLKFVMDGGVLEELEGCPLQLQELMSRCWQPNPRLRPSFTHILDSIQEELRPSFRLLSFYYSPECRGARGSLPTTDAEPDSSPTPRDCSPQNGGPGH
# [10] = target: T10, panel of 374 wild-type kinases (Homo sapiens, UniProt Q9BXA6); conditions: read-out: % Enzyme Activity (relative to DMSO controls), kinase SSTK/TSSK6
# T10 construct: purchased Reaction Biology Corporation
# [11] = target: T11, panel of 374 wild-type kinases (Homo sapiens, UniProt P53671); conditions: read-out: % Enzyme Activity (relative to DMSO controls), LIMK2
# T11 construct: purchased Reaction Biology Corporation
# [12] = read-out: % Enzyme Activity (relative to DMSO controls), CDK5/P25
# [13] = read-out: % Enzyme Activity (relative to DMSO controls), CDK5/p35
Structure (SMILES),remaining activity at 5 µM [1],remaining activity at 5 µM [2],remaining activity at 5 µM [3],remaining activity at 5 µM [4],remaining activity at 5 µM [5],"remaining activity at 5 µM [6, 12]","remaining activity at 5 µM [6, 13]",remaining activity at 5 µM [7],remaining activity at 5 µM [8],remaining activity at 5 µM [9],remaining activity at 5 µM [10],remaining activity at 5 µM [11],also measured
"O=C(Nc1cnn(-c2csc(C(=O)NC3COC3)c2)c1)Nc1c(F)cccc1Cl [Compound 25, 4-(4-(3-(2-chloro-6-fluorophenyl)ureido)-1H-pyrazol-1-yl)-N-(oxetan-3-yl)thiophene-2-carboxamide]",91%,95%,90.2%,91.5%,105%,88.2%,94.3%,100%,104%,75.9%,103%,94%,–
"O=C(Nc1cnn(-c2csc(C(=O)NC3COC3)c2)c1)Nc1ccccc1Cl [Compound 17, 4-(4-(3-(2-chlorophenyl)ureido)-1H-pyrazol-1-yl)-N-(oxetan-3-yl)thiophene-2-carboxamide]",93.5%,96.9%,103%,97.8%,99.8%,101%,95.4%,108%,102%,96%,103%,96.8%,–
"Cc1sc(C(=O)NC2COC2)cc1-n1cc(NC(=O)Nc2c(F)cccc2Cl)cn1 [Compound 27, 4-(4-(3-(2-chloro-6-fluorophenyl)ureido)-1H-pyrazol-1-yl)-5-methyl-N-(oxetan-3-yl)thiophene-2-carboxamide]",–,–,–,–,–,–,–,–,–,–,–,–,"remaining activity at 10 µM ([1]; 10 uM): 104%; remaining activity at 10 µM ([2]; 10 uM): 106%; remaining activity at 10 µM ([3]; 10 uM): 98%; remaining activity at 10 µM ([4]; 10 uM): 95.2%; remaining activity at 10 µM ([5]; 10 uM): 104%; remaining activity at 10 µM [6, 12]: 97.6%; remaining activity at 10 µM [6, 13]: 103%; remaining activity at 10 µM ([7]; 10 uM): 96.9%; remaining activity at 10 µM ([8]; 10 uM): 103%; remaining activity at 10 µM ([9]; 10 uM): 71.9%; remaining activity at 10 µM ([10]; 10 uM): 94%; remaining activity at 10 µM ([11]; 10 uM): 113%"
